Results on two compounds are retold here after patent US12338446B2, “Plants having increased tolerance to herbicides” (priority 2015, dated 2025).

For assay [1], the system named is Transgenic Arabidopsis thaliana plants with wildtype or mutated PPO sequences. As to the kind of experiment: Tolerance of transgenic Arabidopsis thaliana plants to PPO-inhibiting herbicides in 48-well plates (growth inhibition). Type of assay: in vivo. Conditions: seven to ten days after seeding. As to the method:
Transformed cells are selected in selection media supplemented with 0.5-1.5 μM imazethapyr for 3-4 weeks. Transgenic plantlets are regenerated on plant regeneration media and rooted afterwards. Transgenic plantlets are subjected to TaqMan analysis for the presence of the transgene before being transplanted to potting mixture and grown to maturity in greenhouse. Arabidopsis thaliana are transformed with wildtype or mutated PPO sequences by floral dip method as described by McElver and Singh (WO 2008/124495). Transgenic Arabidopsis plants are subjected to TaqMan analysis for analysis of the number of integration loci. Transformation of Otyza sativa (rice) are done by protoplast transformation as described by Peng et al. (U.S. Pat. No. 6,653,529) TO or T1 transgenic plant of soybean, corn, and rice containing mutated PPO sequences are tested for improved tolerance to PPO-derived herbicides in greenhouse studies and mini-plot studies with the following PPO-inhibiting herbicides: saflufenacil, 1,5-dimethyl-6-thioxo-3-(2,2,7-trifluoro-3-oxo-4-(prop-2-ynyl)-3,4-dihydro-2H-benzo[b][1,4]oxazin-6-yl)-1,3,5-triazinane-2,4-dione (CAS 1258836-72-4), flumioxazin, butafenacil, acifluorfen, lactofen, bifenox, sulfentrazone, and photosynthesis inhibitor diuron as negative control.
Transgenic Arabidopsis thaliana plants are assayed for improved tolerance to saflufenacil, 1,5-dimethyl-6-thioxo-3-(2,2,7-trifluoro-3-oxo-4-(prop-2-ynyl)-3,4-dihydro-2H-benzo[b][1,4]oxazin-6-yl)-1,3,5-triazinane-2,4-dione (CAS 1258836-72-4), flumioxazin, butafenacil, acifluorfen, lactofen, bifenox, sulfentrazone, and photosynthesis inhibitor diuron as negative control in 48-well plates. Therefore, T2 seeds are surface sterilized by stirring for 5 min in ethanol+water (70+30 by volume), rinsing one time with ethanol+water (70+30 by volume) and two times with sterile, deionized water. The seeds are resuspended in 0.1% agar dissolved in water (w/v) Four to five seeds per well are plated on solid nutrient medium consisting of half-strength murashige skoog nutrient solution, pH 5.8 (Murashige and Skoog (1962) Physiologia Plantarum 15: 473-497). Compounds are dissolved in dimethylsulfoxid (DMSO) and added to the medium prior solidification (final DMSO concentration 0.1%). Multi well plates are incubated in a growth chamber at 22° C., 75% relative humidity and 110 μmol Phot*m^−2*s^−1 with 14:10 h light: dark photoperiod. Growth inhibition is evaluated seven to ten days after seeding in comparison to wild type plants.

Assay [2] deals with Nicotiana benthamiana leaf discs. As to the kind of experiment: PSII yield inhibition (chlorophyll fluorescence, imaging PAM) in transiently transformed tobacco leaf discs. Type of assay: cell-based. As to conditions: read-out: IC50 of PSII yield inhibition. The source says: Transient expression of PPO sequences (e.g. SEQ ID NO: 184) as wildtype or with respective mutations were done as described previously (Voinnet O., et al., 2003, The Plant Journal 33, 949-956). In brief, cloning of GOI and Agrobacterium transformation (strain: GV2260) were done as described in EXAMPLE 5. Young leaves of
Nicotiana benthamiana were infiltrated with transgenic Agrobacterium suspension (OD^600 of 1.0) harboring binary vector constructs containing a GO/gene controlled by a promoter and terminator sequence. 48 h to 72 h after infiltration punches of leave discs (0.75 cm in diameter) were transferred to 6-well plates with medium (half strength Linsmaier-Skoog (Linsmaier and Skoog (1965) Physiol. Plant. 18: 100-127) nutrient solution or water) containing herbicide of interest in different concentrations. […]
Leaf discs, generated as described in EXAMPLE 14, expressing a protein encoded by GOI, were subjected to analysis on improved tolerance to herbicide treatment. For analysis of herbicide damage, chlorophyll fluorescence were identified as indicative marker (Dayan and Zaccaro (2012) Pest. Biochem. Physiol. 102: 189-197). […] PSII yield were measured as per manufacturer instructions. Tolerance factors were calculated based on IC50 values of PSII yield inhibition of transformed versus empty vector-transformed leaf discs. […]

Where [3] appears, read: gene CHLSP_PPO_wt_tpFNR, Chloroflexus sp. (SEQ ID NO: 21).
Where [4] appears, read: gene OPITE_PPO_wt_tpFNR, Opitutus marinus (SEQ ID NO: 9).
The mark [5] stands for this setting: gene RHOMA_PPO_F353V_tpFNR, Rhodotermus marinus (SEQ ID NO: 3 oder 5).
The mark [6] stands for this setting: gene RHOMA_PPO_wt_tpFNR, Rhodotermus marinus (SEQ ID NO: 3 oder 5).
Setting [7] is: gene hemG_tpFNR, Escherichia coli (SEQ ID NO: 184).

Where two headings read alike, the source gives them in different places.

As to `C#CCN1C(=O)C(F)(F)Oc2cc(F)c(-n3c(=O)n(C)c(=S)n(C)c3=O)cc21` [BAS 850H, 1,5-dimethyl-6-thioxo-3-(2,2,7-trifluoro-3-oxo-4-(prop-2-ynyl)-3,4-dihydro-2H-benzo[b][1,4]oxazin-6-yl)-1,3,5-triazinane-2,4-dione], the “improved tolerance (growth inhibition in comparison to wild type plants)” value in assay [1] (setting [3]) is 1500; in assay [1] (setting [4]), 9; in assay [1] (setting [5]) it was 1; in assay [1] (setting [6]), 1; in assay [1] (setting [7]) it was 4433. The half-maximal inhibitory concentration (IC50) in assay [2] (empty vector-transformed leaf discs, treated for 48 h) worked out at 11 nM.
Consider `CC(C)N(C)S(=O)(=O)NC(=O)c1cc(-n2c(=O)cc(C(F)(F)F)n(C)c2=O)c(F)cc1Cl` [Saflufenacil, saflufenacil], for which the “improved tolerance (growth inhibition in comparison to wild type plants)” value is listed as 1 in assay [1] (gene AC IB A_hemJ_wt_tpFNR, Acinetobacter baylyi (SEQ ID NO: 312)); 1 in assay [1] (gene CALNI_PPO_wt_tpFNR, Calditerrivibrio nitroreducens (SEQ ID NO: 48)); 1 in assay [1] (gene CANME_PPO_wt_tpFNR, Candidatus methylomirabilis (SEQ ID NO: 54 or 57)); 640 in assay [1] (setting [3]); 10 in assay [1] (gene HYDTH_PPO_wt_tpFNR, Hydrogenobacter thermophilus (SEQ ID NO: 27)); 1 in assay [1] (gene LARHO_PPO_wt_tpFNR, Laribacter hongkongensis (SEQ ID NO: 34)). For the same compound, the “improved tolerance (growth inhibition in comparison to wild type plants)” value in assay [1] (setting [4]) is listed as 14; in assay [1] (setting [5]), 1; in assay [1] (setting [6]), 1; in assay [1] (setting [7]), 332. Also, in assay [2] (48 h), the IC50 stood at 110 nM.
